Assays:
P450 isoenzyme 3A4 = P450 isoenzyme 3A4 (Homo sapiens, UniProt P08684); settings: cited from earlier work
P-gp = target: T1, P-gp (Homo sapiens, UniProt P08183); assay: cellular P-gp function, DiOC2 accumulation assay with flow cytometry, in AML patients; type: in vivo; settings: circulating NK cells and leukemic blasts; 700 mg/day continuous iv infusion
T1 construct: endogenous in cells; host or cells: circulating NK cells and leukemic blasts of AML patients
Protocol: Cytarabine was also administered (100 mg/m^2/day) starting after the first dose of daunorubicin as a continuous intravenous infusion on days 1-7. Blood samples were taken at intervals for pharmacokinetic and pharmacodynamic studies. Pharmacokinetic drug determinations were conducted by HPLC. Pharmacodynamic assessments of cellular P-gp function were conducted using an accumulation assay with DiOC2 and flow cytometry. P-gp function was assessed on circulating natural killer (NK) cells and leukemic blasts. […] Means of 3 patients for each time point are shown.

P450 isoenzyme 3A4, sequence (P08684 whole entry, the tested form may be a part): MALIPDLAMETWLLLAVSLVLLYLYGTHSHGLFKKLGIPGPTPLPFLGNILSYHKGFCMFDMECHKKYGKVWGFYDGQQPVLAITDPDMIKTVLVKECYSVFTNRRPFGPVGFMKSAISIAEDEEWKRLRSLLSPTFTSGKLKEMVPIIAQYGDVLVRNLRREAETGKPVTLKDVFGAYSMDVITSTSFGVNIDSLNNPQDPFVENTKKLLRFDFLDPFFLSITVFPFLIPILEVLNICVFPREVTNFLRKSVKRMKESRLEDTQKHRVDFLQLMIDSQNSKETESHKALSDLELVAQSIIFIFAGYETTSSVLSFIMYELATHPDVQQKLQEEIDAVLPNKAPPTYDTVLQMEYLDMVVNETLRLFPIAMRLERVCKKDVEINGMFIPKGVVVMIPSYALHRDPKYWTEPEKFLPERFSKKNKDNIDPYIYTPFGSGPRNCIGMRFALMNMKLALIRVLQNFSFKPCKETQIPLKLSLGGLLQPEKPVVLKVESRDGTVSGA
T1 sequence (P08183 whole entry, the tested form may be a part): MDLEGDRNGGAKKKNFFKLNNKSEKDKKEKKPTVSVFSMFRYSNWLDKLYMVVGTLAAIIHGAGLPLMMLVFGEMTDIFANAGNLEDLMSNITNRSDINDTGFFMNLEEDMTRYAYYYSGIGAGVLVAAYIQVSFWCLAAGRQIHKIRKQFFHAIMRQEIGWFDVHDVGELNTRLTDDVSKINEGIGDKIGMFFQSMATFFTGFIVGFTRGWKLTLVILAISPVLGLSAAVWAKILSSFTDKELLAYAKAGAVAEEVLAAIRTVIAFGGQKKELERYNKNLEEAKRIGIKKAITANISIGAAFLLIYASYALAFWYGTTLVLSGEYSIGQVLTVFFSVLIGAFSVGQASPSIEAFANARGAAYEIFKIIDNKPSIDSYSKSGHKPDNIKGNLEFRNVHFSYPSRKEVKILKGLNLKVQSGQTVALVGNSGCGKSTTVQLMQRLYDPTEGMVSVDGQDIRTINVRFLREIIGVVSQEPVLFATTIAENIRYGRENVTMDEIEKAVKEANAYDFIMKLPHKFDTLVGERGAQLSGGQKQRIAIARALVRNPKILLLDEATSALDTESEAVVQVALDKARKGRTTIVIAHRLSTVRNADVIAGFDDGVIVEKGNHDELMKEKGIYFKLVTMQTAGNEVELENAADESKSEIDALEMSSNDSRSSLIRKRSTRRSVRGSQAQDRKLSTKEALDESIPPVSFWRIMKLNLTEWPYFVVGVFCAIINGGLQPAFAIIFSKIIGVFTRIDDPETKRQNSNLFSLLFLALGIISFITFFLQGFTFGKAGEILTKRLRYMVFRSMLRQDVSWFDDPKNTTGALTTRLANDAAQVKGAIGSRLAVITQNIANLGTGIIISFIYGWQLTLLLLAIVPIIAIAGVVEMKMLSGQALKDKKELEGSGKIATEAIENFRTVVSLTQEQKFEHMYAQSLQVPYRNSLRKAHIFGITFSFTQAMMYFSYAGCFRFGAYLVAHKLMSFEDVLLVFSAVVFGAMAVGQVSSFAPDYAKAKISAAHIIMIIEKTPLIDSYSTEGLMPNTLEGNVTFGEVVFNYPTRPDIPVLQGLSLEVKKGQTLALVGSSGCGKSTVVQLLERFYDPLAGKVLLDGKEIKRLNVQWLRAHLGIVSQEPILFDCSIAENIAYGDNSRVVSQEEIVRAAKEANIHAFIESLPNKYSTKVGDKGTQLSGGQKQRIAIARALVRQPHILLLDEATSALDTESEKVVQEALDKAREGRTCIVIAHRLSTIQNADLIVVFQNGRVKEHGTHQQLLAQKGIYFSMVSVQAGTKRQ

## C/C=C/C[C@@H](C)C(=O)[C@H]1C(=O)N[C@@H](C(C)C)C(=O)N(C)CC(=O)N(C)[C@@H](CC(C)C)C(=O)N[C@@H](C(C)C)C(=O)N(C)[C@@H](CC(C)C)C(=O)N[C@@H](C)C(=O)N[C@H](C)C(=O)N(C)[C@@H](CC(C)C)C(=O)N(C)[C@@H](CC(C)C)C(=O)N(C)[C@@H](C(C)C)C(=O)N1C [valspodar]
P450 isoenzyme 3A4
  substrate for the P450 isoenzyme 3A4: substrates for the P450 isoenzyme 3A4

## O[C@@H](COc1cccc2ncccc12)CN1CCN([C@@H]2c3ccccc3[C@@H]3[C@H](c4ccccc42)C3(F)F)CC1 [zosuquidar]
P-gp
  time to potent inhibition of P-gp function after start of zosuquidar infusion: ≤ 2 h

## COc1cc(C(=O)C(=O)N2CCCC[C@H]2C(=O)OC(CCCc2cccnc2)CCCc2cccnc2)cc(OC)c1OC [biricodar]
P450 isoenzyme 3A4
  substrate for the P450 isoenzyme 3A4: substrates for the P450 isoenzyme 3A4

Reference: patent publication US20070010478A1 (priority 2005, published 2007)
